Assay results reported in BindingDB's records for doi:10.1016/s0960-894x(98)00019-5 (Abbott Laboratories, 1999).

Test: Inhibitory concentration to antagonise cation efflux in nAChR subtype human alpha3betaX, expressed in IMR-32 cells

| SMILES | IC50 |
| --- | --- |
| CCCCc1cncc(OC[C@@H]2CCCN2C)c1 [3-Butyl-5-((S)-1-methyl-pyrrolidin-2-ylmethoxy)-pyridine] | 5 µM |
| CCCc1cncc(OC[C@@H]2CCCN2C)c1 [3-((S)-1-Methyl-pyrrolidin-2-ylmethoxy)-5-propyl-pyridine] | 3.2 µM |
